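Method: 48-hour compound exposure of cells in 96-well plates, five concentrations, linear interpolation of endpoints. The concentration for 50% growth inhibition is given as GI50. TGI marks complete inhibition of growth.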
How the values were obtained:
Assay in all cases: inhibition of tumour cell growth, NCI panel, 48 h
[1] = test system: RXF 393 renal
[2] = test system: SK-MEL-28 melanoma
[3] = test system: MOLT-4 leukemia
[4] = test system: SR leukemia
[5] = test system: A549 NSCLC
[6] = test system: SNB-19 CNS
[7] = test system: K-562 leukemia
[8] = test system: MDA-MB-231 breast
[9] = test system: 786-0 renal
[10] = test system: UACC-62 melanoma
[11] = test system: OVCAR-3 ovarian
[12] = test system: A498 renal
[13] = test system: TK-10 renal
[14] = test system: T-47D breast
[15] = test system: EKVX NSCLC
[16] = test system: SK-OV-3 ovarian
[17] = test system: MALME-3M melanoma
[18] = test system: NCI/ADR-RES ovarian
[19] = test system: MCF7 breast
[20] = test system: HS 578T breast
[21] = test system: PC-3 prostate
[22] = test system: SW-620 colon
[23] = test system: RPMI-8226 leukemia
[24] = test system: CAKI-1 renal
[25] = test system: SF-539 CNS
[26] = test system: IGROV1 ovarian
[27] = test system: SNB-75 CNS
[28] = test system: COLO 205 colon
[29] = test system: HCC-2998 colon
[30] = test system: HCT-15 colon
[31] = test system: NCI-H460 lung
[32] = test system: OVCAR-5 ovarian
[33] = test system: ACHN renal
[34] = test system: SF-268 CNS
[35] = test system: NCI-H522 lung
[36] = test system: HOP-92 NSCLC
[37] = test system: SF-295 CNS
[38] = test system: HL-60(TB) leukemia
[39] = test system: NCI-H226 lung
[40] = test system: SK-MEL-5 melanoma
[41] = test system: DU-145 prostate
[42] = test system: HT29 colon
[43] = test system: U251 CNS
[44] = test system: UO-31 renal
[45] = test system: OVCAR-8 ovarian
[46] = test system: MDA-MB-435
[47] = test system: SN12C renal
[48] = test system: OVCAR-4 ovarian
[49] = test system: HOP-62 NSCLC
[50] = test system: HCT-116 colon
[51] = test system: NCI-H23 lung
[52] = test system: KM12 colon
[53] = test system: UACC-257 melanoma
[54] = test system: M14 melanoma
[55] = test system: SK-MEL-2 melanoma
[56] = test system: CCRF-CEM leukemia
[57] = test system: LOX IMVI melanoma
[58] = test system: BT-549 breast

O=C(CSCC(=O)N/N=C/c1cc(I)cc(I)c1O)N/N=C/c1cc(I)cc(I)c1O
TGI [1]: 24.5 µM
TGI [2]: > 100 µM
TGI [3]: 29.2 µM
TGI [4]: 14 µM
TGI [5]: > 100 µM
TGI [6]: 36.6 µM
TGI [7]: 37.7 µM
TGI [8]: 25.1 µM
TGI [9]: 22.2 µM
TGI [10]: 31.9 µM
TGI [11]: > 100 µM
TGI [12]: 27.9 µM
TGI [13]: 31.6 µM
TGI [14]: > 100 µM
TGI [15]: 79.2 µM
TGI [16]: 35 µM
TGI [17]: 44.3 µM
TGI [18]: 59.9 µM
TGI [19]: 70.7 µM
TGI [20]: 39 µM
TGI [21]: > 100 µM
TGI [22]: > 100 µM
TGI [23]: 61.5 µM
TGI [24]: > 100 µM
TGI [25]: 38.1 µM
TGI [26]: 25.3 µM
TGI [27]: 19.5 µM
TGI [28]: 63.8 µM
TGI [29]: 38.1 µM
TGI [30]: > 100 µM
TGI [31]: 82 µM
TGI [32]: 82.5 µM
TGI [33]: 32.2 µM
TGI [34]: 22.6 µM
TGI [35]: 35 µM
TGI [36]: > 100 µM
TGI [37]: 47.1 µM
TGI [38]: 43.5 µM
TGI [39]: 41.1 µM
TGI [40]: 24.8 µM
TGI [41]: > 100 µM
TGI [42]: > 100 µM
TGI [43]: 26.2 µM
TGI [44]: 44.5 µM
TGI [45]: 59.8 µM
TGI [46]: 92.9 µM
TGI [47]: > 100 µM
TGI [48]: > 100 µM
TGI [49]: 33.4 µM
TGI [50]: 33.9 µM
TGI [51]: 25.3 µM
TGI [52]: 88.2 µM
TGI [53]: > 100 µM
TGI [54]: 43.6 µM
TGI [55]: 47.4 µM

O=S(=O)(Nc1ncccn1)c1ccc(N=Nc2ccc(O)c3ncccc23)cc1
GI50 [1]: 9.95 µM
TGI [1]: 29.2 µM
GI50 [2]: 12.5 µM
TGI [2]: 46.3 µM
GI50 [3]: 5.68 µM
TGI [3]: 51.2 µM
GI50 [4]: 4.62 µM
TGI [4]: 63 µM
GI50 [5]: 5.46 µM
TGI [5]: 29 µM
GI50 [6]: 6.83 µM
TGI [6]: > 100 µM
GI50 [7]: 3.23 µM
TGI [7]: 61.2 µM
GI50 [8]: 15.9 µM
TGI [8]: 97.1 µM
GI50 [9]: 7.17 µM
TGI [9]: 58.1 µM
GI50 [10]: 3.4 µM
TGI [10]: 14 µM
GI50 [11]: 6.25 µM
TGI [11]: 59.4 µM
GI50 [12]: 12.5 µM
TGI [12]: 27.2 µM
GI50 [16]: 19.2 µM
TGI [16]: > 100 µM
GI50 [18]: 5.37 µM
TGI [18]: 51.8 µM
GI50 [19]: 5.67 µM
TGI [19]: 29.4 µM
GI50 [20]: 3 µM
TGI [20]: 13.1 µM
GI50 [21]: 15.6 µM
TGI [21]: > 100 µM
GI50 [22]: 5.67 µM
TGI [22]: 33.7 µM
GI50 [23]: 3.94 µM
TGI [23]: 25.2 µM
GI50 [24]: 3.82 µM
TGI [24]: 21 µM
GI50 [25]: 4.67 µM
TGI [25]: 21.9 µM
GI50 [26]: 4.37 µM
TGI [26]: 33 µM
GI50 [27]: 2.01 µM
TGI [27]: 11 µM
GI50 [28]: 26.2 µM
TGI [28]: > 100 µM
GI50 [29]: 12.2 µM
TGI [29]: 29 µM
GI50 [30]: 4.05 µM
TGI [30]: 22.5 µM
GI50 [31]: 3.69 µM
TGI [31]: 17.2 µM
GI50 [32]: 29.7 µM
TGI [32]: 89.2 µM
GI50 [33]: 5.18 µM
TGI [33]: 24.4 µM
GI50 [34]: 9.14 µM
TGI [34]: 87 µM
GI50 [35]: 5 µM
TGI [35]: 25.7 µM
GI50 [37]: 2.89 µM
TGI [37]: 12 µM
GI50 [38]: 6.34 µM
TGI [38]: 32.1 µM
GI50 [39]: 13.4 µM
TGI [39]: 30.5 µM
GI50 [40]: 6.85 µM
TGI [40]: 20.7 µM
GI50 [41]: 12 µM
TGI [41]: > 100 µM
GI50 [42]: 22.6 µM
TGI [42]: 78 µM
GI50 [56]: 3.29 µM
TGI [56]: 24.8 µM
GI50 [43]: 4.71 µM
TGI [43]: 30.4 µM
GI50 [44]: 1.94 µM
TGI [44]: 12.4 µM
GI50 [45]: 3.6 µM
TGI [45]: 27.2 µM
GI50 [46]: 5.31 µM
TGI [46]: 21.8 µM
GI50 [47]: 6.43 µM
TGI [47]: 53.4 µM
GI50 [48]: 4.51 µM
TGI [48]: 71.7 µM
GI50 [49]: 9.15 µM
TGI [49]: 76.1 µM
GI50 [57]: 8.7 µM
TGI [57]: 33.7 µM
GI50 [50]: 4.2 µM
TGI [50]: 40.4 µM
GI50 [58]: 10.7 µM
TGI [58]: 27 µM
GI50 [52]: 5.87 µM
TGI [52]: 29.8 µM
GI50 [53]: 14.8 µM
TGI [53]: 45.2 µM
GI50 [54]: 8.59 µM
TGI [54]: 26.6 µM
GI50 [55]: 18.3 µM
TGI [55]: 43.6 µM
